Measured values from US9861647B2 (Prelief Inc., priority 2007, dated 2018).

Columns and labels:
[1] = test system: ragweed sensitized Beagle dogs; assay: Ragweed-induced nasal congestion, nasal cavity volume by acoustic rhinometry; type: in vivo
Text: Beagle dogs immunized with ragweed (RW) as puppies develop allergic immune responses. These allergic dogs show elevated total and specific serum IgE and increased numbers of eosinophils in their blood and lungs, as well as an increase in airway resistance and a decrease in dynamic compliance after a challenge with RW by inhalation or local instillation in defined lung lobes. Additionally, these dogs develop increased nasal congestion and inflammation following RW challenge in the nose.
Ragweed sensitized beagle dogs (n=5) with preexisiting nasal and airway allergic responses were utilized in the animal study described in this Example. Dogs served as their own control and initially were treated with vehicle (sterile water) and then rested for 5 weeks prior to receiving the test compound. […] Based on the aerosol testing only 1.6 mg/dog could be delivered by inhalation during a 15 minute exposure (20 mg/ml solution). […]
(§1) FIG. 1 summarizes the study design for characterizing the effects of CGP on rhinitis symptoms in ragweed sensitized Beagle dogs. The baseline nasal cavity volume was first measured 3 days (day −3) before each of the vehicle and CGP treatments. […]
Treatment occurred on Days 0 to 5 (only AM on Day 5). […] The pH of the compound (as administered for nasal inhalation) was recorded prior to administration. […]
Acoustic rhinometery was measured on experimental Days 3, 4, and 5. […]

[2] = test system: inflammatory cells in nasal lavage; assay: Nasal lavage cell counts and differentials after nasal ragweed challenge; type: in vivo, Beagle dogs
Method: Ragweed sensitized beagle dogs (n=5) with preexisiting nasal and airway allergic responses were utilized in the animal study described in this Example. Dogs served as their own control and initially were treated with vehicle (sterile water) and then rested for 5 weeks prior to receiving the test compound. […] Based on the aerosol testing only 1.6 mg/dog could be delivered by inhalation during a 15 minute exposure (20 mg/ml solution). In addition, each dog received twice daily an intranasal instillation of 30 mg (2×375 μl of 20 mg/ml in each nostril) given within 30 minutes after the end of the inhalation exposures.
as §1, with “treatments. The dogs were treated with vehicle or CGP (day 0) twice daily with the target dosage described above.” for “treatments.”
Total nasal cells were determined using an automatic cell counter. […] At least four hundred inflammatory cells (or less if applicable) were counted and the percentage of specific cell types determined for each animal (slides in duplicates, 200 cells per slide). […]
Changes in nasal cavity volume or mediator levels were assessed by two way analysis of variance (ANOVA) with Bonferroni post-test. […]

calcium glycerophosphate
attenuation of nasal congestion at individual time points ([1]; 15 to 90 minutes post ragweed, Bonferroni posttest p<0.05): statistically significant at all time points from 15 to 90 minutes post ragweed
AUC of the change in nasal cavity volume between 0 and 90 min ([1]; vs vehicle control, n=5, Paired t-test p=0.0092): significantly increased
levels of macrophages in nasal lavage ([2]; following treatment, not detectable following vehicle): negligible levels
number of inflammatory cells in the nasal lavage ([2]; pretreatment vs vehicle, Days 1 and 2 after nasal RW challenge): did tend to reduce the lung inflammatory cells compared to vehicle treatment, although none of the endpoints reached statistical significance
